Patent publication US12435087B2, “Modulators of DCN-1 and methods of use thereof” (Cellarity, Inc., priority 2023, dated 2025)
Like-named read-outs stand apart in the source and are kept apart here.

What was measured:
DCN1 protein = DCN1 protein (Homo sapiens (Human), UniProt Q96GG9); assay: Intact protein MS analysis with the RapidFire-TOF system (covalent adduct formation); type: binding; details: 400 nM DCN1, incubated at room temperature for 3 hours
Method: (§1) DCN1 protein, His-TEV-DCN1, were expressed in E. Coli. The His-tagged protein was first purified with an Ni-NTA column. The His-tag was cleaved using His-tag TEV protease and the His-tags were removed using a second Ni-NTA column. Protein purity was verified with SDS-PAGE and intact MS. DCN1 was dissolved in a buffer containing 25 mM Tris-HCl, 200 mM NaCl, and 1 mM DTT at 400 nM. 11 concentrations of compounds were added to the DCN1 solution and incubated at room temperature for 3 hours, unless otherwise specified. The reaction plates were quenched by adding 0.2% formic acid. Quenched assay plates were analyzed with an Agilent RapidFire 360 system connected to an Agilent 6545 Q-TOF mass spectrometer equipped with an AJS source. 10 μL of sample volume was loaded onto a custom packed cartridge (4 μL, PLRP-S 30 μm/1000 Å pore; Optimize Technologies) with loading buffer (ddH2O with 0.09% (vol/vol) formic acid and 0.01% (vol/vol) trifluoroacetic acid; 1.25 ml/min) for 6 seconds before being eluted directly into the mass spectrometer in elution buffer (80% acetonitrile with 0.09% (vol/vol) formic acid and 0.01% (vol/vol) trifluoroacetic acid; 0.5 ml/min) for 7 seconds. The cartridge was re-equilibrated with loading buffer for 1 second before collection of the next sample. The Q-TOF was operated in TOF-only positive ionization mode set to the following parameters: Gas Temp=350 C, Drying Gas=7 l/min, Nebulizer=50 psi, Sheath Gas Temp=400 C, Sheath Gas Flow=12 l/min, VCap=4000 V, Nozzle Voltage=1000 V, Fragmentor=125 V, Skimmer=65 V and Oct 1 RF Vpp=750V. Raw MS data files were deconvoluted and analyzed using the Agilent MassHunter Bioconfirm software package to identify both parent protein and expected compound adduct mass signatures.
An MS assay was performed to evaluate the ability of the compounds to covalently modify DCN-1.
as §1, with “Vcap=4000” for “VCap=4000”

[1] = target: DCN1 (DCUND1) protein PONY domain (Homo sapiens (Human), UniProt Q96GG9); assay: TR-FRET assay (binding to DCN-1, displacement of FAM-labeled probe)
Sequence of DCN1 (DCUND1) protein PONY domain (Q96GG9 60-248): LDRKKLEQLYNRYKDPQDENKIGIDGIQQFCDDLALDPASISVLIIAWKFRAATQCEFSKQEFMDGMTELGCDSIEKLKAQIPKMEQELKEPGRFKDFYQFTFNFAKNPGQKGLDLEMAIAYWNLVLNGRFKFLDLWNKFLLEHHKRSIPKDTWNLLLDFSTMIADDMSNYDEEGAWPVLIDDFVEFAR
Method in brief: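 Compounds read at 1, 5 and 24 h, 0.1% final DMSO, by TR-FRET between terbium-streptavidin on biotinylated DCN1 PONY domain (E. coli) and a FAM-tagged non-covalent inhibitor probe. Two setups used, 5 nM protein with 20 nM labelled probe, or 0.31 nM protein with 100 nM labelled plus 800 nM unlabelled probe; buffer had TritonX and 200 mM NaCl. % activity relative to high (with probe) and low (without probe) controls.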

[2] = 24 hr after treatment with compound, read-out: TR FRET IC50 24 hr
[3] = TR FRET IC50 1 hr (nM), 1 hr after treatment with compound

Sequence of DCN1 protein (Q96GG9 whole entry): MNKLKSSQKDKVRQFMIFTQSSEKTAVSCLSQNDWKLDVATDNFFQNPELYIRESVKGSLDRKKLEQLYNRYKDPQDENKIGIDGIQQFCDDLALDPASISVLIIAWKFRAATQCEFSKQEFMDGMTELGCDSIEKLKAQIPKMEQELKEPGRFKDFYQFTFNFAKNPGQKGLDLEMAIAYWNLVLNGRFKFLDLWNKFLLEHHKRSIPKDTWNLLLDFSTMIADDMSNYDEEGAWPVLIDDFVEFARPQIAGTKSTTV

SMILES | Emax (DCN1 protein) | other results
CCN1C(=O)[C@H](NC(=O)c2cccc(C(F)(F)F)c2)[C@@H](c2ccccc2NC(=O)COc2c(F)c(F)cc(F)c2F)c2cnn(-c3ccccc3)c21 (racemic) [Compound I-200] | 0 to 30% | 
C/C=C/C(=O)Nc1cccc([C@H]2c3c(C)nn(-c4ccccc4)c3N(CC)C(=O)[C@@H]2NC(=O)c2cccc(C(F)(F)F)c2)c1 (racemic) [Compound I-164] | 0 to 30% | 
CCN1C(=O)[C@H](NC(=O)c2cccc(C(F)(F)F)c2)[C@@H](c2ccccc2NC(=O)CCl)c2cnn(-c3ccccc3)c21 (racemic) [Compound I-170] |  | % Adduct Formation (MS Emax) (DCN1 protein): +++ (MS Emax % adduct formation greater than 80.0 and less than or equal to 100.0)
CCN1C(=O)[C@H](NC(=O)c2cccc(C(F)(F)F)c2)[C@@H](c2ccccc2NC(=O)CCl)c2c(C)nn(-c3ccccc3)c21 (racemic) [Compound I-208] | 80 to 100% | 
CCN1C(=O)[C@H](NC(=O)c2cccc(C(F)(F)F)c2)[C@@H](c2ccccc2NC(=O)CCl)c2cnn(-c3ccccc3)c21 [Compound I-178, N-((4S,5R)-4-(2-(2-chloroacetamido)phenyl)-7-ethyl-6-oxo-1-phenyl-4,5,6,7-tetrahydro-1H-pyrazolo[3,4-b]pyridin-5-yl)-3-(trifluoromethyl)benzamide] |  | % Adduct Formation (MS Emax) (DCN1 protein): + (MS Emax % adduct formation greater than or equal to 0.0 and less than or equal to 30.0)
CCN1C(=O)[C@H](NC(=O)c2cccc(C(F)(F)F)c2)[C@@H](c2ccccc2NC(=O)/C=C/C(F)(F)F)c2cnn(-c3ccccc3)c21 (racemic) [Compound I-168] | 0 to 30% | 
C=C(F)C(=O)Nc1ccccc1[C@H]1c2cnn(-c3ccccc3)c2N(CC)C(=O)[C@@H]1NC(=O)c1cccc(C(F)(F)F)c1 (racemic) [Compound I-199] | 0 to 30% | 
CCN1C(=O)[C@@H](NC(=O)c2cccc(C(F)(F)F)c2)[C@@H](c2cccc(NC(=O)[C@H](C)Br)c2)c2c(C)nn(-c3ccccc3)c21 (mixture of isomers) [Compound I-204] | 0 to 30% | 
C#CC(=O)Nc1cccc([C@H]2c3c(C)nn(-c4ccccc4)c3N(CC)C(=O)[C@H]2NC(=O)c2cccc(C(F)(F)F)c2)c1 (racemic) [Compound I-173] | 30 to 80% | 
C=CS(=O)(=O)Nc1cccc([C@H]2c3c(C)nn(-c4ccccc4)c3N(CC)C(=O)[C@@H]2NC(=O)c2cccc(C(F)(F)F)c2)c1 (racemic) [Compound I-5] | 80 to 100% | 
CCN1C(=O)[C@H](NC(=O)c2cccc(C(F)(F)F)c2)[C@@H](c2cccc(NC(=O)COc3c(F)c(F)cc(F)c3F)c2)c2c(C)nn(-c3ccccc3)c21 (racemic) [Compound I-171] | 0 to 30% | 
CCN1C(=O)[C@@H](NC(=O)c2cccc(C(F)(F)F)c2)[C@@H](c2cccc(NC(=O)/C=C/CN3CCOCC3)c2)c2c(C)nn(-c3ccccc3)c21 (racemic) [Compound I-205] | 0 to 30% | 
CCN1C(=O)[C@H](NC(=O)c2cccc(C(F)(F)F)c2)[C@@H](c2ccccc2NC(=O)C2=CCCC2)c2cnn(-c3ccccc3)c21 (racemic) [Compound I-188] | 0 to 30% | 
CCN1C(=O)[C@H](NC(=O)c2cccc(C(F)(F)F)c2)[C@@H](c2ccccc2NC(=O)/C=C/CN(C)C)c2cnn(-c3ccccc3)c21 (racemic) [Compound I-196] | 0 to 30% | 
C=CS(=O)(=O)Nc1cccc([C@H]2c3c(C)nn(-c4ccccc4)c3N(CC)C(=O)[C@H]2NC(=O)c2cccc(C(F)(F)F)c2)c1 (racemic) [Compound I-186] | 30 to 80% | 
CCN1C(=O)[C@@H](NC(=O)c2cccc(C(F)(F)F)c2)[C@@H](c2ccccc2NC(=O)CCl)c2c(C)nn(-c3ccccc3)c21 (racemic) [Compound I-191] | 80 to 100% | 
C=CS(=O)(=O)Nc1ccccc1[C@H]1c2cnn(-c3ccccc3)c2N(CC)C(=O)[C@@H]1NC(=O)c1cccc(C(F)(F)F)c1 (racemic) [Compound I-166] | 80 to 100% | 
CCN1C(=O)[C@H](NC(=O)c2cccc(C(F)(F)F)c2)[C@@H](c2ccccc2NC(=O)[C@H](C)Cl)c2c(C)nn(-c3ccccc3)c21 (mixture of isomers) [Compound I-181] |  | % Adduct Formation (MS Emax) (DCN1 protein): ++ (MS Emax % adduct formation greater than 30.0 and less than or equal to 80.0)
C=C(C)C(=O)Nc1ccccc1[C@H]1c2cnn(-c3ccccc3)c2N(CC)C(=O)[C@@H]1NC(=O)c1cccc(C(F)(F)F)c1 (racemic) [Compound I-183] | 0 to 30% | 
C=C(CN(C)C)C(=O)Nc1ccccc1[C@H]1c2cnn(-c3ccccc3)c2N(CC)C(=O)[C@@H]1NC(=O)c1cccc(C(F)(F)F)c1 (racemic) [Compound I-177] | 30 to 80% | 
CCN1C(=O)[C@H](NC(=O)c2cccc(C(F)(F)F)c2)[C@@H](c2ccccc2NS(=O)(=O)CCl)c2cnn(-c3ccccc3)c21 (racemic) [Compound I-175] | 0 to 30% | 
C=C(CN1CCOCC1)C(=O)NCc1cccc([C@@H]2c3cnn(-c4ccccc4)c3N(CC)C(=O)[C@H]2NC(=O)c2ccn(CC#N)n2)c1 [Compound I-340, 1-(cyanomethyl)-N-((4R,5S)-7-ethyl-4-(3-((2-(morpholinomethyl)acrylamido)methyl)phenyl)-6-oxo-1-phenyl-4,5,6,7-tetrahydro-1H-pyrazolo[3,4-b]pyridin-5-yl)-1H-pyrazole-3-carboxamide] |  | IC50 [1, 2]: 200 to 1000 nM; IC50 [1, 3]: 1000 to 3000 nM
CCN1C(=O)[C@@H](NC(=O)c2cccc(C(F)(F)F)c2)[C@H](c2ccccc2CN(C)C#N)c2c(C)nn(-c3ccccc3)c21 (racemic) [Compound I-30] |  | IC50 [1, 2]: 1000 to 3000 nM; IC50 [1, 3]: 1000 to 3000 nM
CCN1C(=O)[C@@H](NC(=O)c2nccc(C(F)(F)F)n2)[C@H](c2cccc(NC(=O)C3=CCN(C)C3)n2)c2cnn(-c3ccccc3)c21 (racemic) [Compound I-376, rac-N-((4R,5S)-7-ethyl-4-(6-(1-methyl-2,5-dihydro-1H-pyrrole-3-carboxamido)pyridin-2-yl)-6-oxo-1-phenyl-4,5,6,7-tetrahydro-1H-pyrazolo[3,4-b]pyridin-5-yl)-4-(trifluoromethyl)pyrimidine-2-carboxamide] |  | IC50 [1, 2]: ≤ 200 nM; IC50 [1, 3]: 200 to 1000 nM
C=C(C(=O)N(C)Cc1cccc([C@@H]2c3cnn(-c4ccccc4)c3N(CC)C(=O)[C@H]2NC(=O)c2ccn(C3CC3)n2)c1)C(C)N1CC2CC(C1)O2 (some centres unmarked) [Compound I-286] |  | IC50 [1, 2]: ≤ 200 nM; IC50 [1, 3]: 1000 to 3000 nM
CCN1C(=O)[C@@H](NC(=O)c2nccc(C(F)(F)F)n2)[C@H](c2cccc(C(=O)N3CCC[C@H]3C#N)c2)c2cnn(-c3ccccc3)c21 [Compound I-249] |  | IC50 [1, 2]: 1000 to 3000 nM; IC50 [1, 3]: 1000 to 3000 nM
CCN1C(=O)[C@H](NC(=O)c2cccc(C(F)(F)F)c2)[C@@H](c2ccccc2NC(=O)CCl)c2c(C)nn(-c3ccccc3)c21 [Compound I-110, N-((4S,5R)-4-(2-(2-chloroacetamido)phenyl)-7-ethyl-3-methyl-6-oxo-1-phenyl-4,5,6,7-tetrahydro-1H-pyrazolo[3,4-b]pyridin-5-yl)-3-(trifluoromethyl)benzamide] |  | IC50 [1, 2]: 1000 to 3000 nM; IC50 [1, 3]: 1000 to 3000 nM
C=C(CN1CCOCC1)C(=O)NCc1cccc([C@@H]2c3cnn(-c4ccccc4)c3N(CC)C(=O)[C@H]2NC(=O)c2ccn(CC(F)F)n2)c1 [Compound I-364] |  | IC50 [1, 2]: ≤ 200 nM; IC50 [1, 3]: 200 to 1000 nM
